{"source": "patent US20230233545A1", "about": "“TREATMENT OF ATRIAL DYSFUNCTION” (MyoKardia, Inc., priority 2020, published 2023)", "key": {"[1]": {"test_system": "LV (papillary) skinned muscle fibers", "test": "Myocardial force generation, LV skinned muscle fibers (tension-pCa, stiffness)", "type": "biochemical, Yucatan mini-pig", "settings": "at 3 μM", "protocol": "(§1) The ability of Compound I to increase myocardial force generation at a given Ca2+ concentration was evaluated using LA (n=6) and LV (n=6) skinned muscle fibers prepared from three different Yucatan mini-pig hearts. In short, as previously described, 3 hearts were harvested, rinsed and shipped in cold cardioplegia solution (Custodiol® HTK; Essential Pharmaceuticals, LLC, NC, USA). Upon receipt, LV (papillary) and LA muscle fibers were dissected at 4° C. in a high-relaxing solution (100 mM BES, 10 mM EGTA, 6.57 mM MgCl2, 10 mM creatine phosphate, 6.22 mM ATP, 41.89 mM Kprop, 2.5 μM pepstatin, 1 μM leupeptin, 50 μM PMSF, 5 mM NaN3, pH 7.0). Fiber bundles were cut and skinned (in a high-relaxing solution containing 1% Triton X-100), fitted with aluminum foil t-clips, and mounted on a mechanics apparatus (Aurora Scientific Inc., ON, Canada). Sarcomere length was set to 2.0 μm. Steady-state isometric tension and stiffness (via a 3% stretch over 250 ms) were measured at increasing concentrations of Ca^2+ (pCa 8.0 to 4.5, adjusted to maintain 180 mM ionic strength) twice, first in the absence (control, 1% DMSO) and then in the presence of Compound I (3 μM, 1% DMSO). In all cases, tension values were normalized to the control maximum isometric tension (at pCa 4.5). Active and passive stiffness were calculated by measuring the slope of the early (Ca^2+ dependent) and late phases, respectively, of the tension response to the brief 3% stretches. Data are presented as means (SD) in text or as mean±SEM in figures; EC50 values (and 95% CIs) were calculated using a four-parameter-fit model (GraphPad Prism, GraphPad Software Inc., CA, USA)."}, "[2]": {"target": "left atrial (LA) myofibrils (Sus scrofa, UniProt K7GMH0)", "sequence (F1SSF9 2-175)": "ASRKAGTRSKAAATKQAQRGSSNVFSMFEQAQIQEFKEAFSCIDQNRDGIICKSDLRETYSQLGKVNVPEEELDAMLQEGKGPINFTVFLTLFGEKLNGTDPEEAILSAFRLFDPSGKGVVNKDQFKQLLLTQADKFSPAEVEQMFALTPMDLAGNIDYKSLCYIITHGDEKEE", "sequence (K7GMH0 entry or part of it)": "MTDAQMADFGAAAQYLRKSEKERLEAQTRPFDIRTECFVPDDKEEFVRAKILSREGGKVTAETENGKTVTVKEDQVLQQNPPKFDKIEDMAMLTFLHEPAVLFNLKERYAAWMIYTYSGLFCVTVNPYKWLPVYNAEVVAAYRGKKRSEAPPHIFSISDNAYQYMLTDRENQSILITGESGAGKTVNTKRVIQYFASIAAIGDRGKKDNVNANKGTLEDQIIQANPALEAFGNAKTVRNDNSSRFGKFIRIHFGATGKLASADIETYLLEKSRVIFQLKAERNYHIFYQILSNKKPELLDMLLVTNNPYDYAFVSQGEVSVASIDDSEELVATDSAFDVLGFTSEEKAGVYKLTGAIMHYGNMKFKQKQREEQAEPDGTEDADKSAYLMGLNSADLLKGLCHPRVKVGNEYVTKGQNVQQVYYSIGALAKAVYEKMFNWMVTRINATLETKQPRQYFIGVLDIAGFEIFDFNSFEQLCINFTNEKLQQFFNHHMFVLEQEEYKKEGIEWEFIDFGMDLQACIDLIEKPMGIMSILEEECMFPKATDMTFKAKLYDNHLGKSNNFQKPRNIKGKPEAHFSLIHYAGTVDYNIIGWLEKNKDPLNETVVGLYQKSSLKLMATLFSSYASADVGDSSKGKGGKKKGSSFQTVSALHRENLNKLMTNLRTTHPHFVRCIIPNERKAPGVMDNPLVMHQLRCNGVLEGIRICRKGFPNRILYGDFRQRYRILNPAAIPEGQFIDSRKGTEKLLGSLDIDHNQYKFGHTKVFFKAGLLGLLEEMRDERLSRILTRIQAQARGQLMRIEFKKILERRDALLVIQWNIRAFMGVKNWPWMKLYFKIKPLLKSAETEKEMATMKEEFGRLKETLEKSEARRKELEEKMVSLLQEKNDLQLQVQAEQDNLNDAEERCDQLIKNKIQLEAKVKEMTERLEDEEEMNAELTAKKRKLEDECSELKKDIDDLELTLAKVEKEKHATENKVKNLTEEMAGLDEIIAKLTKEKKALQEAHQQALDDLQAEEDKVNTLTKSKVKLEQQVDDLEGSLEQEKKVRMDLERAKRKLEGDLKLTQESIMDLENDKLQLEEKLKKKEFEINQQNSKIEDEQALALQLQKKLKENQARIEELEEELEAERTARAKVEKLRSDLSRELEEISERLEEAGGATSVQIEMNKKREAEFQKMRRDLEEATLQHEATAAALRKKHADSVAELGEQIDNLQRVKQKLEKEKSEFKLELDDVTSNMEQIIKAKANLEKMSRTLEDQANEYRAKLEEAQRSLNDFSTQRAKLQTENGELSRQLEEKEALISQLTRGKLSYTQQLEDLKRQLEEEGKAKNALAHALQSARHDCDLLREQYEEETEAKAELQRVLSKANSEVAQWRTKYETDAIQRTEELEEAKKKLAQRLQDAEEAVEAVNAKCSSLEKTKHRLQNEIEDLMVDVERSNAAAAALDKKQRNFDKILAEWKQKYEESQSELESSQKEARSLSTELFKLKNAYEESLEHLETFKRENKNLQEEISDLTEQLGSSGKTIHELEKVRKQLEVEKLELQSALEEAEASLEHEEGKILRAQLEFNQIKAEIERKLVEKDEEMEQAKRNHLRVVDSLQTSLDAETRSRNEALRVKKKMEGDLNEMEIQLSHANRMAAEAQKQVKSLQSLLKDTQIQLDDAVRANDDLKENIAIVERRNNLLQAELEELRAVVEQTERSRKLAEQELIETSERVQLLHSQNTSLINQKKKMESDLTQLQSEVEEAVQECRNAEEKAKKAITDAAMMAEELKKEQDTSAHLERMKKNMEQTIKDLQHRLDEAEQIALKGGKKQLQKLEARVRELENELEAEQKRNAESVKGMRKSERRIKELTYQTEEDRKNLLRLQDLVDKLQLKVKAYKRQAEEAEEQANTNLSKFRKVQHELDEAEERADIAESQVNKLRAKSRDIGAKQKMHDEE", "sequence (F1RRT2 2-197, further chain)": "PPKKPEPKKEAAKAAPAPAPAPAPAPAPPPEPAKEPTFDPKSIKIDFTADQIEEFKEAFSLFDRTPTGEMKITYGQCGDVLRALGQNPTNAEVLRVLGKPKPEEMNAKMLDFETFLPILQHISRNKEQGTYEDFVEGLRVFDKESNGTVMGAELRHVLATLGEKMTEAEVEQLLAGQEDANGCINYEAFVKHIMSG", "test": "Steady-state ATPase (ATP turnover rate), LA myofibrils", "type": "biochemical, Yucatan mini-pig", "protocol": "The ability of Compound I to increase myocardial ATP turnover rates selectively was evaluated using both left atrial (LA) and left ventricular (LV) myofibrils prepared from Yucatan mini-pig hearts, as well as subfragment-1 (51) myosins from cardiac (recombinant human), skeletal (rabbit psoas) and smooth (chicken gizzard) muscles. Pig hearts were harvested, and the left atria/ventricles were freshly excised, dissected, frozen in liquid nitrogen and stored at −80° C. […] This enzyme system couples the formation of ADP to the oxidation of NADH leading to an absorbance change at 340 nm. […] All measurements were carried out at 25° C. using a plate reader (SpectraMax; Molecular Devices, LLC, CA, USA) to monitor the change in absorbance as a function of time; data were normalized to a per-second scale as described in Green et al., Science (2016) 351(6273):617-21. […]"}, "[3]": {"test_system": "LA skinned muscle fibers", "test": "Myocardial force generation, LA skinned muscle fibers (tension-pCa, stiffness)", "type": "biochemical, Yucatan mini-pig", "settings": "at 3 μM", "protocol": "as §1, with “In all cases, tension values were normalized to the control maximum isometric tension (at pCa 4.5).” left out, “Data are presented as means (SD) in text or as mean±SEM in figures; EC50 values (and 95% CIs) were calculated using a four-parameter-fit model (GraphPad Prism, GraphPad Software Inc., CA, USA).” left out"}, "[4]": {"target": "T1, recombinant human cardiac S1 myosin (Homo sapiens, UniProt P12883)", "T1 construct": "subfragment-1 (51) myosins from cardiac (recombinant human), skeletal (rabbit psoas) and smooth (chicken gizzard) muscles; made in house", "T1 sequence (P12883 1-808 limits assumed)": "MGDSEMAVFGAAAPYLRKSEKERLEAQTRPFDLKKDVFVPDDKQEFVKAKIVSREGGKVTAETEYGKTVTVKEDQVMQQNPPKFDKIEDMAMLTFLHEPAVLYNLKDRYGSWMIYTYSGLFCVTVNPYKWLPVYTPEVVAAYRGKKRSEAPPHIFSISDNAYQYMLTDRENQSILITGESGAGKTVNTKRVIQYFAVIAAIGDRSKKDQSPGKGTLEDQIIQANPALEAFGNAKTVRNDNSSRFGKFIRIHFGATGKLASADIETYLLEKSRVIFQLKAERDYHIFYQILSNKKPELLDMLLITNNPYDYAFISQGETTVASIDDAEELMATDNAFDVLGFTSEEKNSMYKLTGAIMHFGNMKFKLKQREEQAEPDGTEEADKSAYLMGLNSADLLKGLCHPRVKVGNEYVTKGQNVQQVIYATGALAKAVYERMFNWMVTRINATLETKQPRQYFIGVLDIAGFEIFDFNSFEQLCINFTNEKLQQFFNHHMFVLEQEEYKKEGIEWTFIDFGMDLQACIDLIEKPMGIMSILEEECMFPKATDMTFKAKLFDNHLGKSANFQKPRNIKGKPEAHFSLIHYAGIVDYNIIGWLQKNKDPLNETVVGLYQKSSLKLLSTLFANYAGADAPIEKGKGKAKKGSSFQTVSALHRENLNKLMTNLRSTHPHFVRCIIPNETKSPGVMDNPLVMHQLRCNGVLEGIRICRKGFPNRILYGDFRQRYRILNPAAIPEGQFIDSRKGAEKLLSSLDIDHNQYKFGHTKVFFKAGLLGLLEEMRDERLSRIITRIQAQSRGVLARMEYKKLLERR", "T1 sequence (P08590 2-195 partner limits assumed)": "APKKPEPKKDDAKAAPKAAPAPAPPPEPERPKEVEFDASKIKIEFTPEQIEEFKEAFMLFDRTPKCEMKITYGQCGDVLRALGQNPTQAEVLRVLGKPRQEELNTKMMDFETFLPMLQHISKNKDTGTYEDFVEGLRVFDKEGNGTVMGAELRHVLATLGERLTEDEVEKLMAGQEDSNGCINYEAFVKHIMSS", "test": "Actin-activated ATPase, cardiac S1 myosin", "type": "biochemical", "settings": "at 3 μM", "protocol": "The ability of Compound I to increase myocardial ATP turnover rates selectively was evaluated using both left atrial (LA) and left ventricular (LV) myofibrils prepared from Yucatan mini-pig hearts, as well as subfragment-1 (51) myosins from cardiac (recombinant human), skeletal (rabbit psoas) and smooth (chicken gizzard) muscles. Pig hearts were harvested, and the left atria/ventricles were freshly excised, dissected, frozen in liquid nitrogen and stored at −80° C. […]\nSteady-state ATPase measurements at varying concentrations of Compound I (0-50 μM, in 2% DMSO) were conducted using a coupled enzyme system utilizing pyruvate kinase and lactate dehydrogenase. This enzyme system couples the formation of ADP to the oxidation of NADH leading to an absorbance change at 340 nm. […] All measurements were carried out at 25° C. using a plate reader (SpectraMax; Molecular Devices, LLC, CA, USA) to monitor the change in absorbance as a function of time; data were normalized to a per-second scale as described in Green et al., Science (2016) 351(6273):617-21. […]"}}, "data": [{"smiles": "Cn1cc(S(=O)(=O)[C@@](C)(F)C2CCN(C(=O)Nc3ccon3)CC2)c(C(F)F)n1", "note": "[Compound I, (R)-4-(1-((3-(difluoromethyl)-1-methyl-1H-pyrazol-4-yl)sulfonyl)-1-fluoroethyl)-N-(isoxazol-3-yl)piperidine-1-carboxamide]", "values": [{"measurement": "passive stiffness, ventricular skinned fibers", "setting": "[1]", "result": "without altering passive stiffness"}, {"measurement": "increase in LV tension", "setting": "[1]; pCa 6.0", "result": 43, "unit": "%"}, {"measurement": "maximal force-generation capability, ventricular skinned fibers", "setting": "[1]; data not shown", "result": "without altering"}, {"measurement": "activation at 3 µM", "setting": "[2]; at 3 μM, read-out: increase in ATPase, LA porcine myofibrils", "result": 56, "unit": "%"}, {"measurement": "fold induction at 50 µM", "setting": "[2]; at 50 μM, SD ±0.3, read-out: increase in ATPase turnover rate, atrial myofibrils", "result": 2.3}, {"measurement": "passive stiffness, atrial skinned fibers", "setting": "[3]", "result": "without altering passive stiffness"}, {"measurement": "maximal force-generation capability, atrial skinned fibers", "setting": "[3]; data not shown", "result": "without altering"}, {"measurement": "increase in ATPase rate, cardiac (human) S1 myosin", "setting": "[4]", "result": 1.4, "unit": "fold"}]}]}
